{"source": "patent US8987195B2", "about": "(priority 2012, dated 2015)", "key": {"HCV genotype 1b replicon": {"test_system": "HCV genotype 1b replicon", "assay": "HCV replicon assay, genotype 1b replicon EC50", "format": "cell-based, Hepatitis C virus", "settings": "Hepatitis C virus, genotype 1b replicon, read-out: EC50 [gt-1b]", "procedure,_shortened": "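Assay format: compound titration on stable replicon cells, no G418 during treatment, 24 to 48 hours. Lysates were assayed for replicon RNA (hybridization/protection or TaqMan) or luciferase; EC50 fitted to four parameters against DMSO.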"}, "[1]": {"molecular_target": "HCV NS3/4A protease genotype 1b (Hepatitis C virus genotype 1b, UniProt P26663)", "assay": "HCV NS3/4A protease time-resolved fluorescence (TRF) assay, Ki against genotype 1b", "format": "biochemical", "settings": "IC50 [gt-1b] (nM), NS3/4A genotype 1b, enzyme 0.2 nM", "procedure,_shortened": "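First, protease (genotype 1b 0.2 nM, A156T 0.4 nM, genotype 3a 0.025 nM) is preincubated 30 min with inhibitor. Next, 25 nM TRF substrate starts the reaction, run 2.5 h at room temperature. Finally, europium fluorescence is read and Ki calculated from IC50.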"}}, "note": "Like-named read-outs stand apart in the source and are kept apart here."}
{"smiles": "COc1ccc2nc(C(F)(F)F)c3c(c2c1)CC[C@]1(C[C@H]2C(=O)N[C@]4(C(=O)NS(=O)(=O)C5(C)CC5)C[C@H]4/C=C\\CCCCC[C@H](NC(=O)OC(C)(C)C(F)(F)F)C(=O)N2C1)O3", "note": "[Example 348, 1,1,1-trifluoro-2-methylpropan-2-yl [(2R,6S,12Z,13aS,14aR,16aS)-9′-methoxy-14a-{[(1-methylcyclopropyl)sulfonyl]carbamoyl}-5,16-dioxo-5′-(trifluoromethyl)-1,1′,2′,5,6,7,8,9,10,11,13a,14,14a,15,16,16a-hexadecahydrospiro[cyclopropa[e]pyrrolo[1,2-a][1,4]diazacyclopentadecine-2,3′-pyrano[2,3-c]quinolin]-6-yl]carbamate]", "values": [{"measurement": "EC50", "setting": "HCV genotype 1b replicon; K+ salt", "result": 9.23, "unit": "nM"}, {"measurement": "IC50", "setting": "[1]; K+ salt", "result": 0.046, "unit": "nM"}]}
{"smiles": "COc1ccc2nc(C)c3c(c2c1)CC[C@]1(C[C@H]2C(=O)N[C@]4(C(=O)NS(=O)(=O)C5(C)CC5)C[C@H]4/C=C\\CCCCC[C@H](NC(=O)OCC4(C(F)(F)F)CC4)C(=O)N2C1)O3", "note": "[Example 349, [1-(trifluoromethyl)cyclopropyl]methyl [(2R,6S,12Z,13aS,14aR,16aS)-9′-methoxy-5′-methyl-14a-{[(1-methylcyclopropyl)sulfonyl]carbamoyl}-5,16-dioxo-1,1′,2′,5,6,7,8,9,10,11,13a,14,14a,15,16,16a-hexadecahydrospiro[cyclopropa[e]pyrrolo[1,2-a][1,4]diazacyclopentadecine-2,3′-pyrano[2,3-c]quinolin]-6-yl]carbamate]", "values": [{"measurement": "EC50", "setting": "HCV genotype 1b replicon; K+ salt", "result": 4.55, "unit": "nM"}, {"measurement": "IC50", "setting": "[1]; K+ salt", "result": 0.012, "unit": "nM"}]}
{"smiles": "Cc1ccnc(N[C@H]2CCCCC/C=C\\[C@@H]3C[C@@]3(C(=O)NS(=O)(=O)C3(C)CC3)NC(=O)[C@@H]3C[C@]4(CCc5c(c(C)nc6ccccc56)O4)CN3C2=O)c1", "note": "[Example 350, (2R,6S,12Z,13aS,14aR,16aS)-5′-methyl-N-[(1-methylcyclopropyl)sulfonyl]-6-[(4-methylpyridin-2-yl)amino]-5,16-dioxo-1,1′,2′,6,7,8,9,10,11,13a,14,15,16,16a-tetradecahydrospiro[cyclopropa[e]pyrrolo[1,2-a][1,4]diazacyclopentadecine-2,3′-pyrano[2,3-c]quinoline]-14a(5H)-carboxamide]", "values": [{"measurement": "EC50", "setting": "HCV genotype 1b replicon", "result": 2.84, "unit": "nM"}, {"measurement": "IC50", "setting": "[1]", "result": 0.035, "unit": "nM"}]}
{"smiles": "COc1ccc2nc(C(F)(F)F)c3c(c2c1)CC[C@]1(C[C@H]2C(=O)N[C@]4(C(=O)NS(=O)(=O)C5(C)CC5)C[C@H]4/C=C\\CCCCC[C@H](NC(=O)O[C@@H](C)C(C)C)C(=O)N2C1)O3", "note": "[Example 351, (2S)-3-methylbutan-2-yl [(2R,6S,12Z,13aS,14aR,16aS)-9′-methoxy-14a-{[(1-methylcyclopropyl)sulfonyl]carbamoyl}-5,16-dioxo-5′-(trifluoromethyl)-1,1′,2′,5,6,7,8,9,10,11,13a,14,14a,15,16,16a-hexadecahydrospiro[cyclopropa[e]pyrrolo[1,2-a][1,4]diazacyclopentadecine-2,3′-pyrano[2,3-c]quinolin]-6-yl]carbamate]", "values": [{"measurement": "EC50", "setting": "HCV genotype 1b replicon; K+ salt", "result": 2.19, "unit": "nM"}, {"measurement": "IC50", "setting": "[1]; K+ salt", "result": 0.029, "unit": "nM"}]}
{"smiles": "COc1ccc2nc(C(C)C)c3c(c2c1)[C@H](F)C[C@]1(C[C@H]2C(=O)N[C@]4(C(=O)NS(=O)(=O)C5(C)CC5)C[C@H]4/C=C\\CCCCC[C@H](NC(=O)OC(C)(C)C(F)(F)F)C(=O)N2C1)O3", "note": "[Example 352, 1,1,1-trifluoro-2-methylpropan-2-yl [(1′R,2S,6S,12Z,13aS,14aR,16aS)-1′-fluoro-9′-methoxy-14a-{[(1-methylcyclopropyl)sulfonyl]carbamoyl}-5,16-dioxo-5′-(propan-2-yl)-1,1′,2′,5,6,7,8,9,10,11,13a,14,14a,15,16,16a-hexadecahydrospiro[cyclopropa[e]pyrrolo[1,2-a][1,4]diazacyclopentadecine-2,3′-pyrano[2,3-c]quinolin]-6-yl]carbamate]", "values": [{"measurement": "EC50", "setting": "HCV genotype 1b replicon; K+ salt", "result": 1.45, "unit": "nM"}, {"measurement": "IC50", "setting": "[1]; K+ salt", "result": 0.042, "unit": "nM"}]}
